biological target: T1, norepinephrine transporter (NET) (Homo sapiens, UniProt P23975); assay: Eurofins Cerep competition binding assay at norepinephrine transporter; conditions: read-out: NET, percent of control-specific binding, 10 μM test ligand, [3H]nisoxetine, recombinant transporter from CHO cells
T1 construct: host or cells: CHO cells (membrane preparation)
T1 sequence (P23975 whole entry): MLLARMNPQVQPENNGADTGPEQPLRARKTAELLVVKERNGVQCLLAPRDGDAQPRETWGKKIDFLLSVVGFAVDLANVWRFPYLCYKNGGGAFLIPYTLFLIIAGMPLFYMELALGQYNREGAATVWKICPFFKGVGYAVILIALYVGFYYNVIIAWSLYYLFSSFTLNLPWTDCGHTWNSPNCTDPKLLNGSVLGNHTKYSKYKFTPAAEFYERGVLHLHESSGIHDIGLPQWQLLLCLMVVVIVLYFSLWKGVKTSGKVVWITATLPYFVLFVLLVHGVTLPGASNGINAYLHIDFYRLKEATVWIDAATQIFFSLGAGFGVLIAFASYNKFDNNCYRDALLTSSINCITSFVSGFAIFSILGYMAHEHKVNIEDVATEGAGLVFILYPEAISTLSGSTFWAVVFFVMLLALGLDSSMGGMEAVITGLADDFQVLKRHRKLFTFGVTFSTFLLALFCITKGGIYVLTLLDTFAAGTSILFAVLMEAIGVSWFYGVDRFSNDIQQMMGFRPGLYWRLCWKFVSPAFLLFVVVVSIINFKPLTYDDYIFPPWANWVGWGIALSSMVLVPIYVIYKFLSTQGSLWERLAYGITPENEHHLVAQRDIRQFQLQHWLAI

| Compound | inhibition at 10 µM [%] |
| --- | --- |
| CC(C(O)c1ccc2c(c1)OCO2)N(C)Cc1ccccc1 (single isomer, unassigned) [B(III) as diast. (iii)] | 42 |
| N[C@@H](Cc1c[nH]c2ccccc12)C(=O)O [tryptophan] | 1 |
| CC(C(F)c1ccc2c(c1)OCO2)N(C)Cc1ccccc1 (single isomer, unassigned) [D(III) as diast. (vii)] | 50 |

biological target: T2, 5-HT7 receptor (Homo sapiens, UniProt P34969); assay: Eurofins Cerep competition binding assay at 5-HT7 receptor; conditions: 10 μM test ligand, [3H]LSD, recombinant receptor from HEK-293 cells; 10 µM
T2 construct: host or cells: HEK-293 cells (membrane preparation)
T2 sequence (P34969 whole entry): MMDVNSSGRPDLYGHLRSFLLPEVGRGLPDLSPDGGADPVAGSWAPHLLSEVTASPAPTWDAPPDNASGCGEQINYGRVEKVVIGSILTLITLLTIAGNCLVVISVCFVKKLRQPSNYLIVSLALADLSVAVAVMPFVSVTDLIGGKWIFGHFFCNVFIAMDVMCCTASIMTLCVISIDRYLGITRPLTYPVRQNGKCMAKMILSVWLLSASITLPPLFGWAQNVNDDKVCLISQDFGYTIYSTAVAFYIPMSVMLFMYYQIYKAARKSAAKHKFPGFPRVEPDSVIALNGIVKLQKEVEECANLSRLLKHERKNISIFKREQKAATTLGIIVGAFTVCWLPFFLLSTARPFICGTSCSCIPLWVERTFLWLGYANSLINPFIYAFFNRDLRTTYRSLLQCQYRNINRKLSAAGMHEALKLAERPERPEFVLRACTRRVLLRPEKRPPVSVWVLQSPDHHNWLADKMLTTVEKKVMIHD

| Compound | HT7, percent of control-specific binding [%] |
| --- | --- |
| CC(C(O)c1ccc2c(c1)OCO2)N(C)Cc1ccccc1 (single isomer, unassigned) [B(III) as diast. (iii)] | 10 |

same assay, conditions: 10 μM test ligand, [3H]LSD, recombinant receptor from HEK-293 cells; read-out: HT7, percent of control-specific binding

| Compound | inhibition at 10 µM [%] |
| --- | --- |
| N[C@@H](Cc1c[nH]c2ccccc12)C(=O)O [tryptophan] | 11 |
| CC(C(F)c1ccc2c(c1)OCO2)N(C)Cc1ccccc1 (single isomer, unassigned) [D(III) as diast. (vii)] | 60 |

biological target: T3, alpha2A receptor (Homo sapiens, UniProt P08913); assay: Eurofins Cerep competition binding assay at alpha2A receptor; conditions: 10 μM test ligand, [3H]RX 821002, recombinant receptor from CHO cells; 10 µM
T3 construct: host or cells: CHO cells (membrane preparation)
T3 sequence (P08913 1-465): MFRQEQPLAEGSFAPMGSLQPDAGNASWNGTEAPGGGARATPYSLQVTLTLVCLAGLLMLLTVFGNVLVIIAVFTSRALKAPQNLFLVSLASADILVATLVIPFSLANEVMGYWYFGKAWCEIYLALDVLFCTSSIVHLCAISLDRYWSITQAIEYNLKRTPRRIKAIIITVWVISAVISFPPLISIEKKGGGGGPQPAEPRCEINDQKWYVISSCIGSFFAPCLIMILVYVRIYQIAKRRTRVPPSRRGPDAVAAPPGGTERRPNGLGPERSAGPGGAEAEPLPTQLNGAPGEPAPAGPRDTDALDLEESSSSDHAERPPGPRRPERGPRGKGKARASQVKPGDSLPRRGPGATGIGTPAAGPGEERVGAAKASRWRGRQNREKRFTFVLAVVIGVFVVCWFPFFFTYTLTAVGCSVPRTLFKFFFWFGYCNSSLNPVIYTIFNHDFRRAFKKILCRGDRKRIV

| Compound | α-2A, percent of control-specific binding [%] |
| --- | --- |
| CC(C(O)c1ccc2c(c1)OCO2)N(C)Cc1ccccc1 (single isomer, unassigned) [B(III) as diast. (iii)] | 7 |

same assay, conditions: 10 μM test ligand, [3H]RX 821002, recombinant receptor from CHO cells; read-out: α-2A, percent of control-specific binding

| Compound | inhibition at 10 µM [%] |
| --- | --- |
| N[C@@H](Cc1c[nH]c2ccccc12)C(=O)O [tryptophan] | -4 |
| CC(C(F)c1ccc2c(c1)OCO2)N(C)Cc1ccccc1 (single isomer, unassigned) [D(III) as diast. (vii)] | 86 |

biological target: T4, 5-HT2B receptor (Homo sapiens, UniProt P41595); assay: Eurofins Cerep competition binding assay at 5-HT2B receptor; conditions: 10 μM test ligand, [3H]mesulergine, recombinant receptor from CHO cells; 10 µM
T4 construct: host or cells: CHO cells (membrane preparation)
T4 sequence (P41595 whole entry): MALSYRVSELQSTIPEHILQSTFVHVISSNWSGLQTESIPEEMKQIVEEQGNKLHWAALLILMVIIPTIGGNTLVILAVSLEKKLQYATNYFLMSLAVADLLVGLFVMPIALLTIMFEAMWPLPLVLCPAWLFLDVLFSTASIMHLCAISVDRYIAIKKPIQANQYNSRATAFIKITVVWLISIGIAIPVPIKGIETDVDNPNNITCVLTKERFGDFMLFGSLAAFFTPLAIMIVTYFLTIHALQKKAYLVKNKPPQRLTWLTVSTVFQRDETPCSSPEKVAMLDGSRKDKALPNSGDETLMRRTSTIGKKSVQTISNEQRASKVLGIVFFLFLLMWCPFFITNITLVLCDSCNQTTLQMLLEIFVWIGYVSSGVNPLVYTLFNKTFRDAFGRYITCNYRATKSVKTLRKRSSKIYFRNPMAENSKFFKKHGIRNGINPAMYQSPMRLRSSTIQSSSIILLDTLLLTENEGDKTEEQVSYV

| Compound | HT2B, percent of control-specific binding [%] |
| --- | --- |
| CC(C(O)c1ccc2c(c1)OCO2)N(C)Cc1ccccc1 (single isomer, unassigned) [B(III) as diast. (iii)] | 3 |

same assay, conditions: 10 μM test ligand, [3H]mesulergine, recombinant receptor from CHO cells; read-out: HT2B, percent of control-specific binding

| Compound | inhibition at 10 µM [%] |
| --- | --- |
| N[C@@H](Cc1c[nH]c2ccccc12)C(=O)O [tryptophan] | 0 |
| CC(C(F)c1ccc2c(c1)OCO2)N(C)Cc1ccccc1 (single isomer, unassigned) [D(III) as diast. (vii)] | 29 |

biological target: T5, serotonin transporter (SERT) (Homo sapiens, UniProt P31645); assay: biochemical; format: binding; conditions: read-out: SERT, percent of control-specific binding
T5 construct: host or cells: CHO cells (membrane preparation)
T5 sequence (P31645 whole entry): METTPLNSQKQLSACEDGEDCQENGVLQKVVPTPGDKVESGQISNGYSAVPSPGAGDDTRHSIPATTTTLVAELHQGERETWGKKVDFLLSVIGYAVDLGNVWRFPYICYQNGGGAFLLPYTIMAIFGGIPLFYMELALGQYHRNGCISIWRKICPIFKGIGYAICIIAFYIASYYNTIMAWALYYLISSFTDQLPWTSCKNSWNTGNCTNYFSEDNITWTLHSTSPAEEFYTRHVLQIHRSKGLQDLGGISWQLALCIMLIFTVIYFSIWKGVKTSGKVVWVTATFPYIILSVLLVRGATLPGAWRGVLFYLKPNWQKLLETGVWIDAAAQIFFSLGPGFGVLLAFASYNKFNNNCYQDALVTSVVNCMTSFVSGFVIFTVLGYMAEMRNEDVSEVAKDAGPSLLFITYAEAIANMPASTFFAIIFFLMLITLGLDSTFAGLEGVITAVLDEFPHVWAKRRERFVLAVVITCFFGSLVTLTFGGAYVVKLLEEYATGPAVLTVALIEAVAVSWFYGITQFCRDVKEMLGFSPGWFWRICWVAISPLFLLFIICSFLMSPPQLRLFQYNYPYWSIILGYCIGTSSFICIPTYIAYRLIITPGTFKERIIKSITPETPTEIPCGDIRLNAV

| Compound | inhibition at 10 µM [%] |
| --- | --- |
| CC(C(O)c1ccc2c(c1)OCO2)N(C)Cc1ccccc1 (single isomer, unassigned) [B(III) as diast. (iii)] | 58 |
| N[C@@H](Cc1c[nH]c2ccccc12)C(=O)O [tryptophan] | 1 |
| CC(C(F)c1ccc2c(c1)OCO2)N(C)Cc1ccccc1 (single isomer, unassigned) [D(III) as diast. (vii)] | 35 |

biological target: T6, 5-HT1A receptor (Homo sapiens, UniProt P08908); assay: 5-HT1A receptor radioligand competition assay (SPA); format: binding; conditions: 5-HT1A, Ki, competition with 0.5 nM [3H]8-hydroxy-DPAT, membranes containing 5-HT1A
T6 construct: purchased Perkin Elmer 6110501400UA
T6 sequence (P08908 1-422): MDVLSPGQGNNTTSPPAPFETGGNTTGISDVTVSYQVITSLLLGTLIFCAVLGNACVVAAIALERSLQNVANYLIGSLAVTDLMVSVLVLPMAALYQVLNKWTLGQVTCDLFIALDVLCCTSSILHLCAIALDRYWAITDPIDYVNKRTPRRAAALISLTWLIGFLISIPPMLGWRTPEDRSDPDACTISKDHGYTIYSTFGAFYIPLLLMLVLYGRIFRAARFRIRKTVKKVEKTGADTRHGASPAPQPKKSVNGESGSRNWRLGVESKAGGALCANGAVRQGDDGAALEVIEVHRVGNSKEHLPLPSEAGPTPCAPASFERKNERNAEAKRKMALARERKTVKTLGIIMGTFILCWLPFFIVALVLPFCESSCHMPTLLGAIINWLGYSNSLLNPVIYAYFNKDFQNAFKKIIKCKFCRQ

| Compound | Ki [µM] |
| --- | --- |
| CNC(C)C(F)c1ccc2c(c1)OCO2 (single isomer, unassigned) [D(II) as diast. (vi)] | 6 |
| C[C@@H]([C@H](F)c1ccc2c(c1)OCO2)N(C)Cc1ccccc1 [D(III) as diast. (vii)] | 11.3 |
| CC(C(O)c1ccc2c(c1)OCO2)N(C)Cc1ccccc1 (single isomer, unassigned) [B(III) as diast. (iii)] | 110 |
| N[C@@H](Cc1c[nH]c2ccccc12)C(=O)O [tryptophan] | > 1000 |
| CC(C(F)c1ccc2c(c1)OCO2)N(C)Cc1ccccc1 (single isomer, unassigned) [D(III) as diast. (vii)] | 11.3 |

biological target: T6, 5-HT1A receptor; assay: 5-HT1A receptor functional cellular response (cAMP) assay; format: cell-based; conditions: not given

| Compound | EC50 [µM] |
| --- | --- |
| CNC(C)C(F)c1ccc2c(c1)OCO2 (single isomer, unassigned) [D(II) as diast. (vi)] | > 1000 |
| CC(C(F)c1ccc2c(c1)OCO2)N1CCCC1 (stereo not drawn) [D(I) as diast. (v)] | > 1000 |
| CN(C)CCc1c[nH]c2cccc(O)c12 [psilocin] | 0.957 |
| C[C@@H]([C@H](F)c1ccc2c(c1)OCO2)N(C)Cc1ccccc1 [D(III) as diast. (vii)] | 156 |
| CC(C(F)c1ccc2c(c1)OCO2)N(C)Cc1ccccc1 (single isomer, unassigned) [D(III) as diast. (vii)] | 156 |

biological target: T7, dopamine transporter (DAT) (Homo sapiens, UniProt Q01959); assay: Eurofins Cerep competition binding assay at dopamine transporter; conditions: read-out: DAT, percent of control-specific binding, 10 μM test ligand, [3H]BTCP, recombinant transporter from CHO cells
T7 construct: host or cells: CHO cells (membrane preparation)
T7 sequence (Q01959 whole entry): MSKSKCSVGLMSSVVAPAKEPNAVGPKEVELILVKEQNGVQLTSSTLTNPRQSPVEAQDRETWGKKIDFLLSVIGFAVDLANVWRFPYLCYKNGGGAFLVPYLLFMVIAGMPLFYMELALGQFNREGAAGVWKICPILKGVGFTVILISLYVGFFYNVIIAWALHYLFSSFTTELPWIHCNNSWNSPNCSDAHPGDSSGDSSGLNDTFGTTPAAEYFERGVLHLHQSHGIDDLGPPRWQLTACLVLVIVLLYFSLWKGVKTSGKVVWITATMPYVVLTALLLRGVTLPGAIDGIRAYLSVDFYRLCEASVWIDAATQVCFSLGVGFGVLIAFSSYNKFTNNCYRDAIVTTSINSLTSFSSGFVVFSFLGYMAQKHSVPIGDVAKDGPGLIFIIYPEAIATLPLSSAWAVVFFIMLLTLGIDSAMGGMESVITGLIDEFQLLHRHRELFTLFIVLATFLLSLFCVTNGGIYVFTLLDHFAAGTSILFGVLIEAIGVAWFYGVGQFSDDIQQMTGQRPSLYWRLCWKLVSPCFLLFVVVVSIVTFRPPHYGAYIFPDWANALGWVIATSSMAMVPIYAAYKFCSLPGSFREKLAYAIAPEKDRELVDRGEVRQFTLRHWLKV

| Compound | inhibition at 10 µM [%] |
| --- | --- |
| CC(C(O)c1ccc2c(c1)OCO2)N(C)Cc1ccccc1 (single isomer, unassigned) [B(III) as diast. (iii)] | 75 |
| N[C@@H](Cc1c[nH]c2ccccc12)C(=O)O [tryptophan] | 1 |
| CC(C(F)c1ccc2c(c1)OCO2)N(C)Cc1ccccc1 (single isomer, unassigned) [D(III) as diast. (vii)] | 69 |

biological target: T8, MT1 receptor (Homo sapiens, UniProt P48039); assay: Eurofins Cerep competition binding assay at MT1 receptor; conditions: 10 μM test ligand, [125I]2-iodomelatonin, recombinant receptor from CHO cells; 10 µM
T8 construct: host or cells: CHO cells (membrane preparation)
T8 sequence (P48039 whole entry): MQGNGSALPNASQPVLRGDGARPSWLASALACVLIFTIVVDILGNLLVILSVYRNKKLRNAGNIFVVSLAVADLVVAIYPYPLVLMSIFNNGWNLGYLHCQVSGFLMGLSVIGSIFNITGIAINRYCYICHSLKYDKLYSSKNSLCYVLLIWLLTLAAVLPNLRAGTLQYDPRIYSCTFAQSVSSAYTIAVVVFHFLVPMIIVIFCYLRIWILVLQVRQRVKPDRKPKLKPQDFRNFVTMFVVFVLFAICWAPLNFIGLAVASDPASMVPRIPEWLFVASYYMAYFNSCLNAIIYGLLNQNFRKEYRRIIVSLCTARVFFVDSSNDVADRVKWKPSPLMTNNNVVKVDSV

| Compound | MT1, percent of control-specific binding [%] |
| --- | --- |
| CC(C(O)c1ccc2c(c1)OCO2)N(C)Cc1ccccc1 (single isomer, unassigned) [B(III) as diast. (iii)] | 0 |

same assay, conditions: read-out: MT1, percent of control-specific binding, 10 μM test ligand, [125I]2-iodomelatonin, recombinant receptor from CHO cells

| Compound | inhibition at 10 µM [%] |
| --- | --- |
| N[C@@H](Cc1c[nH]c2ccccc12)C(=O)O [tryptophan] | -2 |
| CC(C(F)c1ccc2c(c1)OCO2)N(C)Cc1ccccc1 (single isomer, unassigned) [D(III) as diast. (vii)] | 23 |

biological target: T9, 5-HT2C receptor (Homo sapiens, UniProt P28335); assay: Eurofins Cerep competition binding assay at 5-HT2C receptor; conditions: 10 μM test ligand, [125I](±)DOI, recombinant receptor from HEK-293 cells; 10 µM
T9 construct: host or cells: HEK-293 cells (membrane preparation)
T9 sequence (P28335 33-458): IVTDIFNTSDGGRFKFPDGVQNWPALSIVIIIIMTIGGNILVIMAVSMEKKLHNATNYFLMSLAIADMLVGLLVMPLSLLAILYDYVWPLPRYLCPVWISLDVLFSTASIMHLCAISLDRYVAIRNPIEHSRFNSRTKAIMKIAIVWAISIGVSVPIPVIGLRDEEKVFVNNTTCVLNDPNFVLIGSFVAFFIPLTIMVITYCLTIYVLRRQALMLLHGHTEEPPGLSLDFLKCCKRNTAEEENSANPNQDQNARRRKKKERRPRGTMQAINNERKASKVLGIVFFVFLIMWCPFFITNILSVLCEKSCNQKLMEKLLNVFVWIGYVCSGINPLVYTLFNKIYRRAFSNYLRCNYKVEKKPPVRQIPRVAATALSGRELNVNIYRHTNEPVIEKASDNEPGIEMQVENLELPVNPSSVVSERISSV

| Compound | HT2C, percent of control-specific binding [%] |
| --- | --- |
| CC(C(O)c1ccc2c(c1)OCO2)N(C)Cc1ccccc1 (single isomer, unassigned) [B(III) as diast. (iii)] | 5 |

same assay, conditions: 10 μM test ligand, [125I](±)DOI, recombinant receptor from HEK-293 cells; read-out: HT2C, percent of control-specific binding

| Compound | inhibition at 10 µM [%] |
| --- | --- |
| N[C@@H](Cc1c[nH]c2ccccc12)C(=O)O [tryptophan] | 25 |
| CC(C(F)c1ccc2c(c1)OCO2)N(C)Cc1ccccc1 (single isomer, unassigned) [D(III) as diast. (vii)] | 36 |

biological target: T6, 5-HT1A receptor; assay: Eurofins Cerep competition binding assay at 5-HT1A receptor; conditions: 10 μM test ligand, [3H]8-OH-DPAT, recombinant receptor from HEK-293 cells; 10 µM

| Compound | HT1A, percent of control-specific binding [%] |
| --- | --- |
| CC(C(O)c1ccc2c(c1)OCO2)N(C)Cc1ccccc1 (single isomer, unassigned) [B(III) as diast. (iii)] | 0 |

same assay, conditions: 10 μM test ligand, [3H]8-OH-DPAT, recombinant receptor from HEK-293 cells; read-out: HT1A, percent of control-specific binding

| Compound | inhibition at 10 µM [%] |
| --- | --- |
| N[C@@H](Cc1c[nH]c2ccccc12)C(=O)O [tryptophan] | 6 |
| CC(C(F)c1ccc2c(c1)OCO2)N(C)Cc1ccccc1 (single isomer, unassigned) [D(III) as diast. (vii)] | 36 |

biological target: T10, 5-HT2A receptor (Homo sapiens, UniProt P28223); assay: biochemical; format: binding; conditions: competition with 1 nM [3H]ketanserin, membranes containing 5-HT2A, SPA
T10 construct: purchased PerkinElmer ES-313-M400UA
T10 sequence (P28223 whole entry): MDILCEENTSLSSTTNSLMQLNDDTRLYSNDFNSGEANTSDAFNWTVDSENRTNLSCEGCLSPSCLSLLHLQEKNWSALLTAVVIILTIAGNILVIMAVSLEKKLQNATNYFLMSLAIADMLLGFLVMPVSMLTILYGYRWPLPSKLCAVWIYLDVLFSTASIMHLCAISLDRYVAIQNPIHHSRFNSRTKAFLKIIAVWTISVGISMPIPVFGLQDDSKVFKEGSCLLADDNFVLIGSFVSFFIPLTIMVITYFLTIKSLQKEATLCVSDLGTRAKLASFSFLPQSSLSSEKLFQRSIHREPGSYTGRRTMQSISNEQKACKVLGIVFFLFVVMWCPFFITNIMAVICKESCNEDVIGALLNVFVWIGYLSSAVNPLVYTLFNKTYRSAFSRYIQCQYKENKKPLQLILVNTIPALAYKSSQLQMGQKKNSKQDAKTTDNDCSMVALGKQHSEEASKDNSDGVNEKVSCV

| Compound | Ki [µM] |
| --- | --- |
| CC(C(O)c1ccc2c(c1)OCO2)N(C)Cc1ccccc1 (single isomer, unassigned) [B(III) as diast. (iii)] | 44 |
| N[C@@H](Cc1c[nH]c2ccccc12)C(=O)O [tryptophan] | > 1000 |

From patent US12195439B1, “C1-substituted isopropylamine fused heterocyclic mescaline derivatives” (Enveric Biosciences Canada Inc., priority 2022, dated 2025)
